Source: patent US11535643B2, “Macrolides with modified desosamine sugars and uses thereof” (President and Fellows of Harvard College, priority 2015, dated 2022)
In brackets after ≈: the same amount, converted by molar mass.

Columns and labels:
Assay type in all cases: cell-based
A. baumannii = test: Broth dilution MIC determination (CLSI) against A. baumannii strains
Outline: (§1)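 Strains, including multidrug-resistant and macrolide-resistant ones, were exposed to macrolides in broth dilution per CLSI standards, and the lowest inhibiting concentration was recorded as MIC. Azithromycin and solithromycin were run alongside.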

K. pneumoniae = test: Broth dilution MIC determination (CLSI) against K. pneumoniae strains
Outline: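 Azithromycin and solithromycin served as controls; MICs were obtained by standard CLSI broth dilution on a strain panel including multidrug-resistant and macrolide-resistant isolates.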

P. aeruginosa = test: Broth dilution MIC determination (CLSI) against P. aeruginosa strains
Outline: as §1

E. coli = test: Broth dilution MIC determination (CLSI) against E. coli strains
Outline: as §1

S. pneumoniae = test: Broth dilution MIC determination (CLSI) against S. pneumoniae strains
Excerpt: (§2) Minimum inhibitory concentrations (MICs) for macrolides described herein have been determined for unique strains of S. aureus, S. pneumoniae, S. pyogenes, E. faecalis, E. coli, A. baumannii, K. pneumoniae, P. aeruginosa, and H. influenzae, including several multidrug-resistant strains, with a special focus on macrolide resistant mechanisms. Azithromycin and solithromycin were included as control compounds. CLSI standard procedures for broth dilution MIC determination were used. Data for exemplary compounds described herein is shown in Tables M1-M7 and in Tables N1-N4.

S. aureus = test: Broth dilution MIC determination (CLSI) against S. aureus strains
Outline: as §1

S. pyogenes = test: Broth dilution MIC determination (CLSI) against S. pyogenes strains
Excerpt: as §2

E. faecalis = test: Broth dilution MIC determination (CLSI) against E. faecalis strains
Excerpt: as §2

With `C=CCOCC1CC(N(C)C)C(O)C(OC2C(C)C(=O)C(C)C(=O)OC(CC)C3(C)OC(=O)N(CCCCn4cc(-c5cccc(N)c5)nn4)C3C(C)NCC(C)CC2(C)OC)O1` (stereo not drawn) [FSM-120383] the “MIC A. baumannii ATCC19606” value (A. baumannii; ATCC19606, Strain No. MP-15) was 32 µg/mL (≈ 36.2 µM), the “MIC A. baumannii clinical” value (A. baumannii; Strain No. MP576) was >64 µg/mL and the “MIC A. baumannii clinical” value (A. baumannii; Strain No. MP577) was 64 µg/mL (≈ 72.4 µM). The “MIC K. pneumoniae ATCC10031” value (K. pneumoniae; ATCC10031, Strain No. MP-14) was 8 µg/mL (≈ 9.05 µM), the “MIC K. pneumoniae clinical” value (K. pneumoniae; Strain No. MP546) was >64 µg/mL and the “MIC K. pneumoniae clinical” value (K. pneumoniae; Strain No. MP548) was >64 µg/mL. For the same compound, the “MIC P. aeruginosa ATCC27853” value (P. aeruginosa; ATCC27853, Strain No. MP-3) was 32 µg/mL (≈ 36.2 µM), the “MIC P. aeruginosa PAO1” value (P. aeruginosa; PAO1, Strain No. MP-7) was 64 µg/mL (≈ 72.4 µM) and the “MIC P. aeruginosa PAO1:mex” value (P. aeruginosa; PAO1:mex, Strain No. MP-8) was 8 µg/mL (≈ 9.05 µM). For the same compound, the “MIC E. coli ATCC25922” value (E. coli; ATCC25922, Strain No. MP-4) was 32 µg/mL (≈ 36.2 µM), the “MIC E. coli ATCC25922:tolC” value (E. coli; ATCC25922:tolC, Strain No. MP-9) was 4 µg/mL (≈ 4.52 µM) and the “MIC E. coli clinical” value (E. coli; clinical, Strain No. MP541) was 32 µg/mL (≈ 36.2 µM). For the same compound, the “MIC E. coli clinical-cErm” value (E. coli; clinical-cErm, Strain No. MP532) was >64 µg/mL, the “MIC S. pneumoniae ATCC49619” value (S. pneumoniae; ATCC49619, Strain No. MP-21) was 0.5 µg/mL (≈ 0.566 µM) and the “MIC S. pneumoniae mefA” value (S. pneumoniae; Strain No. MP-626 UNT-038) was 0.5 µg/mL (≈ 0.566 µM). The “MIC S. pneumoniae mefA” value (S. pneumoniae; Strain No. MP-627 UNT-039) was 0.5 µg/mL (≈ 0.566 µM), the “MIC S. aureus ATCC29213” value (S. aureus; ATCC29213, Strain No. MP-12) was >64 µg/mL and the “MIC S. aureus ATCCBAA-977” value (S. aureus; ATCCBAA-977, Strain No. MP-17) was 64 µg/mL (≈ 72.4 µM). The “MIC S. aureus (MRSA) GISA USA600” value (S. aureus; GISA USA600, Strain No. MP-619 UNT-120) was >64 µg/mL, the “MIC S. aureus (MRSA) ST-228 cErm” value (S. aureus; ST-228 cErm, Strain No. MP-513) was >64 µg/mL and the “MIC S. aureus (MRSA) USA100” value (S. aureus; USA100, Strain No. MP-618 UNT-096) was >64 µg/mL. For the same compound, the “MIC S. aureus (MRSA) USA300” value (S. aureus; USA300, Strain No. MP-549) was >64 µg/mL, the “MIC S. aureus (MRSA) ermA phenotype” value (S. aureus; ermA phenotype, Strain No. MP-620 UNT-146) was >64 µg/mL and the “MIC S. pyogenes ATCC19615” value (S. pyogenes; ATCC19615, Strain No. MP-19) was 0.25 µg/mL (≈ 0.283 µM). The “MIC S. pyogenes mac resistant” value (S. pyogenes; mac resistant, Strain No. MP-625 UNT-014) was 1 µg/mL (≈ 1.13 µM), the “MIC E. faecalis ATCC29212” value (E. faecalis; ATCC29212, Strain No. MP-24) was 8 µg/mL (≈ 9.05 µM) and the “MIC E. faecalis van resistant” value (E. faecalis; van resistant, Strain No. UNT-039) was >64 µg/mL.
`CCC1OC(=O)C(C)C(=O)C(C)C(OC2OC(C)CC(NCc3cccnc3)C2O)C(C)(OC)CC(C)CNC(C)C2N(CCCCn3cc(-c4cccc(N)c4)nn3)C(=O)OC12C` (stereo not drawn) [FSM-120384] was tested, and the MIC (A. baumannii; A. baumannii ATCC19606, strain MP-15 (Table N2)) was 64 µg/mL (≈ 71.8 µM), the MIC (A. baumannii; A. baumannii clinical, strain MP576 (Table N2)) was >64 µg/mL and the MIC (A. baumannii; A. baumannii clinical, strain MP577 (Table N2)) was >64 µg/mL. For the same compound, the MIC (K. pneumoniae; K pneumomae ATCC10031, strain MP-14 (Table N2)) was 16 µg/mL (≈ 18 µM), the MIC (K. pneumoniae; K. pneumoniae clinical, strain MP546 (Table N2)) was >64 µg/mL and the MIC (K. pneumoniae; K. pneumoniae clinical, strain MP548 (Table N2)) was >64 µg/mL. The MIC (P. aeruginosa; P. aeruginosa ATCC27853, strain MP-3 (Table N2)) was >64 µg/mL, the MIC (P. aeruginosa; P. aeruginosa PAO1, strain MP-7 (Table N2)) was >64 µg/mL and the MIC (P. aeruginosa; P. aeruginosa PAO1:mex, strain MP-8 (Table N2)) was >64 µg/mL. The MIC (E. coli; E. coli ATCC25922, strain MP-4 (Table N2)) was >64 µg/mL, the MIC (E. coli; E. coli ATCC25922:tolC, strain MP-9 (Table N2)) was 8 µg/mL (≈ 8.98 µM) and the MIC (E. coli; E. coli clinical, strain MP541 (Table N2)) was >64 µg/mL. The MIC (E. coli; E. coli clinical-cErm, strain MP532 (Table N2)) was >64 µg/mL, the MIC (S. pneumoniae; S. pneumoniae ATCC49619, strain MP-21 (Table N2)) was 2 µg/mL (≈ 2.24 µM) and the MIC (S. pneumoniae; S. pneumoniae mefA, strain MP-626 UNT-038 (Table N2)) was 0.5 µg/mL (≈ 0.561 µM). For the same compound, the MIC (S. pneumoniae; S. pneumoniae mefA, strain MP-627 UNT-039 (Table N2)) was 1 µg/mL (≈ 1.12 µM), the MIC (S. aureus; S. aureus (MRSA) GISA USA600, strain MP-619 UNT-120 (Table N2)) was >64 µg/mL and the MIC (S. aureus; S. aureus (MRSA) ST-228 cErm, strain MP-513 (Table N2)) was >64 µg/mL. The MIC (S. aureus; S. aureus (MRSA) USA100, strain MP-618 UNT-096 (Table N2)) was >64 µg/mL, the MIC (S. aureus; S. aureus (MRSA) USA300, strain MP-549 (Table N2)) was >64 µg/mL and the MIC (S. aureus; S. aureus (MRSA) ermA phenotype, strain MP-620 UNT-146 (Table N2)) was >64 µg/mL. The MIC (S. aureus; S. aureus ATCC29213, strain MP-12 (Table N2)) was >64 µg/mL, the MIC (S. aureus; S. aureus ATCCBAA-977, strain MP-17 (Table N2)) was >64 µg/mL and the MIC (S. pyogenes; S. pyogenes ATCC19615, strain MP-19 (Table N2)) was 1 µg/mL (≈ 1.12 µM). For the same compound, the MIC (S. pyogenes; S. pyogenes mac resistant, strain MP-625 UNT-014 (Table N2)) was 4 µg/mL (≈ 4.49 µM), the MIC (E. faecalis; E. faecalis ATCC29212, strain MP-24 (Table N2)) was 32 µg/mL (≈ 35.9 µM) and the MIC (E. faecalis; E. faecalis van resistant, strain UNT-039 (Table N2)) was >64 µg/mL.
